From US7238697B2, “Pyridylpyrimidines for use as pesticides” (Bayer CropScience AG, priority 2001, dated 2007)

Each molecule was assayed on cotton aphid (Aphis gossypii) (assay: Aphis gossypii test (cotton leaves dipped)). Conditions: 200 ppm.
Type: in vivo
Procedure: To produce a suitable preparation of active compound, 1 part by weight of active compound is mixed with the stated amounts of solvent and emulsifier, and the concentrate is diluted with emulsifier-containing water to the desired concentration. Cotton leaves (Gossypium hirsutum) which are heavily infested by the cotton aphid (Aphis gossypii) are treated by being dipped into the preparation of active compound of the desired concentration. After the desired period of time, the kill in % is determined. 100% means that all aphids have been killed; 0% means that none of the aphids have been killed.
In the case of `COC(=O)CSc1nccc(-c2ccccn2)n1` [drawing 398], the “Kill rate in % after 6 d” value is reported as 85%.
With `CCCOC(=O)CSc1nccc(-c2ccccn2)n1` [drawing 399] the “Kill rate in % after 6 d” value was 85%.
In the case of `O=C(CSc1nccc(-c2ccccn2)n1)OC1CCCCC1` [drawing 400], the “Kill rate in % after 6 d” value is reported as 90%.

Each molecule was assayed on thrips (Franklinella occidentalis) (assay: Franklinella test (cucumber plants sprayed)). Conditions: 1000 ppm.
Type: in vivo
Procedure: To product a suitable preparation of active compound, 1 part by weight of active compound is mixed with the stated amounts of solvent and emulsifier, and the concentrate is diluted to the desired concentration.
Cucumber plants (Cucumis sativus) which are heavily infested by all stages of thrips (Franklinella occidentalis) are sprayed with a preparation of active compound of the desired concentration.
After the desired period of time, the effect in % is determined. 100% means that all thrips have been killed; 0% means that none of the thrips have been killed.
For `COC(=O)CSc1nccc(-c2ccccn2)n1` [drawing 401], the “Kill rate in % after 7 d” value was 99%.

The molecules below were run on Meloidogyne incognita (assay: Meloidogyne test (gall formation on lettuce roots)). Conditions: 336 h, after 14 d, solvent 7 parts DMF, emulsifier 2 parts (Table C-2), read-out: Kill rate in % after 14 d.
Type: in vivo
Procedure: To produce a suitable preparation of active compound, 1 part by weight of active compound is mixed with the stated amounts of solvent and emulsifier, and the concentrate is diluted with water to the desired concentration. Vessels are filled with sand, solution of active compound, Meloidogyne incognita egg/larvae suspension and lettuce seeds. The lettuce seeds germinate and the plants develop. On the roots, galls are formed. After the desired period of time, the nematicidal action is determined in % by the gall formation. 100% means that no galls were found; 0% means that the number of galls on the treated plants corresponds to that of the untreated control.
`CCOC(=O)C(C)OC(=O)CSc1nccc(-c2ccccn2)n1` (centres unmarked) [drawing 409] was tested, and the pest or weed control at 20 ppm was 80%.
In the case of `COC(=O)CSc1nc(-c2ccccc2)cc(-c2ccccn2)n1` [drawing 410], the pest or weed control at 20 ppm is reported as 100%.
`CCOC(=O)CSc1nccc(-c2ccc(CC)cn2)n1` [drawing 411] was tested, and the pest or weed control at 20 ppm was 90%.
With `CCOC(=O)CSc1nccc(-c2ccc(C)cn2)n1` [drawing 412] the pest or weed control at 20 ppm was 90%.
Work on `CCOC(=O)CSc1nccc(-c2ccc(C(F)(F)F)cn2)n1` [drawing 413] yielded a pest or weed control at 20 ppm of 100%.
Work on `CC(C)(C)n1nnc(CSc2nccc(-c3ccccn3)n2)n1` [drawing 414] yielded a pest or weed control at 20 ppm of 90%.

Same assay, conditions: 336 h, after 14 d, solvent 30 parts DMF, emulsifier 1 part (Table C-1), read-out: Kill rate in % after 14 d
`CCOC(=O)CSc1nccc(-c2ccccn2)n1` [drawing 402] was tested, and the pest or weed control at 20 ppm was 90%.
In the case of `COCCOC(=O)CSc1nccc(-c2ccccn2)n1` [drawing 403], the pest or weed control at 20 ppm is reported as 90%.
Molecule `CC(C)=NNC(=O)CSc1nccc(-c2ccccn2)n1` [drawing 404] has a pest or weed control at 20 ppm of 98%.
Molecule `COC(=O)CCCSc1nccc(-c2ccccn2)n1` [drawing 405] has a pest or weed control at 20 ppm of 90%.
`COC(=O)CSc1nc(-c2ccccn2)c2cc(Cl)ccc2n1` [drawing 406] was tested, and the pest or weed control at 20 ppm was 98%.
`COC(=O)CSc1nc(-c2ccccn2)cc(-c2ccccn2)n1` [drawing 407] was tested, and the pest or weed control at 20 ppm was 95%.
For `CCOC(=O)/C=C/CSc1nccc(-c2ccccn2)n1` [drawing 408], the pest or weed control at 20 ppm was 100%.

These molecules were tested on peach aphids (Myzus persicae) (assay: Myzus test (cabbage leaves dipped)). Conditions: 144 h, 500 ppm, after 6 d, solvent 7 parts DMF, emulsifier 2 parts (Table D-2), read-out: Kill rate in % after 6 d.
Type: in vivo
Procedure: To produce a suitable preparation of active compound, 1 part by weight of active compound is mixed with the stated amounts of solvent and emulsifier, and the concentrate is diluted with emulsifier-containing water to the desired concentration. Cabbage leaves (Brassica oleracea) which are heavily infested by peach aphids (Myzus persicae) are treated by being dipped into the preparation of the active compound of the desired concentration. After the desired period of time, the kill in % is determined. 100% means that all aphids have been killed; 0% means that none of the aphids has been killed.
`CCOC(=O)CSc1nccc(-c2cc(OC)ccn2)n1` [drawing 439] was tested, and the pest or weed control at 500 ppm was 90%.
Work on `CCOC(=O)CSc1nccc(-c2ccc(C)cn2)n1` [drawing 440] yielded a pest or weed control at 500 ppm of 98%.

Each molecule was assayed on larvae of the mustard beetle (Phaedon cochleariae) (assay: Phaedon larvae test (cabbage leaves dipped)). Conditions: 500 ppm, solvent 7 parts DMF, emulsifier 2 parts (Table E-2).
Type: in vivo
Procedure: To produce a suitable preparation of active compound, 1 part by weight of active compound is mixed with the stated amounts of solvent and emulsifier, and the concentrate is diluted with emulsifier-containing water to the desired concentration. Cabbage leaves (Brassica oleracea) are treated by being dipped into the preparation of active compound of the desired concentration and are populated with larvae of the mustard beetle (Phaedon cochleariae) while the leaves are still moist. After the desired period of time, the kill in % is determined. 100% means that all beetle larvae have been killed; 0% means that none of the beetle larvae have been killed.
In the case of `CCOC(=O)CSc1nccc(-c2ccc(C(F)(F)F)cn2)n1` [drawing 442], the “Kill rate in % after 7 d” value is reported as 100%.
`CCOC(=O)CSc1nccc(-c2ccc(Cl)cn2)n1` [drawing 443] was tested, and the “Kill rate in % after 7 d” value was 100%.
`CC(C)(C)n1nnc(CSc2nccc(-c3ccccn3)n2)n1` [drawing 444] was tested, and the “Kill rate in % after 7 d” value was 100%.

Same assay, conditions: 1000 ppm, solvent 30 parts DMF, emulsifier 1 part (Table E-1)
With `O=C(CSc1nccc(-c2ccccn2)n1)N/N=C/c1ccc([N+](=O)[O-])cc1` [drawing 441] the “Kill rate in % after 7 d” value was 100%.

What follows are molecules tested on caterpillars of the army worm (Spodoptera frugiperda) (assay: Spodoptera frugiperda test (cabbage leaves dipped)). Conditions: 500 ppm, solvent 7 parts DMF, emulsifier 2 parts.
Type: in vivo
Procedure: To produce a suitable preparation of active compound, 1 part by weight of active compound is mixed with the stated amounts of solvent and emulsifier, and the concentrate is diluted with emulsifier-containing water to the desired concentration. Cabbage leaves (Brassica oleracea) are treated by being dipped into the preparation of active compound of the desired concentrated and are populated with caterpillars of the army worm (Spodoptera frugiperda) while the leaves are still moist. After the desired period of time, the kill in % is determined. 100% means that all caterpillars have been killed; 0% means that none of the caterpillars has been killed.
In the case of `CCOC(=O)CSc1nc(C)cc(-c2ccccn2)n1` [drawing 445], the “Kill rate in % after 7 d” value is reported as 100%.
`CCOC(=O)CSc1nccc(-c2ccc(C(F)(F)F)cn2)n1` [drawing 446] was tested, and the “Kill rate in % after 7 d” value was 100%.
With `CC(C)(C)n1nnc(CSc2nccc(-c3ccccn3)n2)n1` [drawing 447] the “Kill rate in % after 7 d” value was 100%.
